Measured values as given in publication PMC6289163 (Tuberculosis (Edinburgh, Scotland), 2018).

Assays:
[1] = system: intracellular M. tuberculosis H37Rv in primary human macrophages; type: cell-based, Mycobacterium tuberculosis; details: positive control, 0.1 μg/ml, 0.7 μM; 6 days; not shown
[2] = system: BCG expressing luxAB; type: cell-based, Mycobacterium bovis bacillus Calmette-Guerin (BCG) Montreal; details: 6.3-100 μM

Compound	intracellular killing [1]	mycobacterial inhibitory capacity [2]
NNC(=O)c1ccncc1 [Isoniazid]	same intracellular killing as 50 μM of NZX	–
WKWLKKWIK-OHxTFA [WKWLKKWIKG-OHxTFA]	–	bacterial killing capacity was overall lower than that of WKWLKKWIKG-NH2xHOAc
